{"source": "patent US9833425B2", "about": "“Gentisic acid is used to improve systemic hemodynamics, hepatic mitochondrial function and lactate acidemia in patients with septic shock” (priority 2015, dated 2017)", "system": "canine model of septic shock (Pseudomonas aeruginosa)", "settings": "for Systemic vascular resistance: mean (SD in the cell below); for ALT (alanine transaminase) / AST (aspartate transaminase) / Arterial pH / CK (creatine kinase) / Cardiac output / LD (lactate dehydrogenase) / Lactate / Mean arterial pressure / Oxygen delivery / Pulmonary wedge pressure / Stroke work index / Troponin / Heart Rates: mean ± SD; for effect of treatment on mean arterial pressure (MAP): infusion started at septic shock condition, 3 hr and 5 hr post treatment; for effect of treatment on blood lactate concentration: over the course of the study; for effect of treatment on heart rate (HR): 3 hrs and 5 hrs posttreatment vs other septic groups", "description": "We used a bacteremic model of Pseudomonas aeruginosa in this study as previously described (20). We used this particular model, since we wanted to measure mitochondrial function and LA under conditions of an acute and intensive inflammatory response analogous to that which would occur in a severe bout of SS in the clinical condition. […] Over the course of the experiment, we studied the animals (18 to 26 kg) while anesthetized with sufentanil citrate (0.05-0.3 ug/kg/min) and midazolam (5 ug/kg/min), and while being ventilated receiving 100% oxygen to maintain arterial around PO2 ˜400 mmHg. We adjusted the ventilator rate over the course of the study to attenuate the development of the metabolic acidosis that is usually observed (20).\nTo assess hemodynamics in this model, we inserted vascular catheters under sterile conditions as previously described (20), after which we connected the catheters to pressure transducers (Cobe, Argon) that were referenced relative to the left atrium and connected to a chart recorder (Astro-Med, W Warwick, R.I.). To measure MAP, we inserted a polyethylene catheter into the right femoral artery, while to measure pulmonary vascular pressures, we inserted a Swanz-Ganz catheter (Edwards Lifesciences, Irvine, Calif.) by percutaneous techniques through the right jugular vein. From the Swanz-Ganz catheter, we obtained measurements of pulmonary arterial pressure (Ppa), wedge pressure (Pwp), and right atrial pressure (Rap), as well as determinations of thermodilution cardiac output (CO).\nFrom the hemodynamic measurements, we calculated SV from CO/heart rates (HR), stroke work (SW) from [SV*(MAP−Pwp)], and systemic vascular resistance (SVR) from [(MAP-Rap)/CO)*80]. We also normalized measurements of SV, SW, and CO and organ oxygen delivery (DO2) to body weight. We calculated DO2 from CO×Hb×1.34 ml oxygen per gram of Hb, since Hb was 100% saturated at a PO2 of ˜400 mmHg. From the arterial catheter and distal port of the Swanz-Ganz catheter, we also took arterial and mixed venous blood samples, respectively, for analyses of PO2, PCO2, and pH.\nIn addition, we placed another polyethylene catheter into the left jugular vein, also by percutaneous techniques, for infusion of the bacteria and intravenous fluids and for obtaining blood chemistry and hematological samples. Since the baseline Pwp found in this model usually averages≈8-10 mmHg, we infused normal saline solution as necessary to maintain Pwp relatively constant over the duration of this study. […] The Clinical Chemistry Laboratory at the Health Sciences Centre performed the clinical laboratory tests.\nWe included 5 groups of animals in the initial phase of this study. These groups included a septic control group, a non-septic control group, a norepinephrine (NE) septic group, a gentisic acid sodium salt (GSS) septic group, and a GSS non-septic group. In each group, we made baseline measurements of hemodynamics and blood parameters after approximately 1 hr period of stability. In the septic groups, after initiation of the bacterial infusion, we repeated the measurements in the septic shock condition. […] In the septic control group, after the SS condition, we started an infusion of 5% dextrose in water (D5W) at approximately 40 ml/hr for the remainder of the study, since D5W was the diluent for both the NE and GSS treatments.\nIn all groups, we then made posttreatment measurements at 3 hrs and 5 hrs after completion of the septic shock/sham-shock determinations.\nIn this supplemental study, we examined the effect of gallic acid on hemodynamics and mitochondrial function in our Pseudomonas aeruginosa model in a manner identical to that described for GSS treatment.", "key": {"[1]": {"settings": "septic dogs, 3 hrs posttreatment"}, "[2]": {"settings": "septic dogs, 5 hrs posttreatment"}, "[3]": {"settings": "septic dogs, baseline (before bacteria/treatment)"}, "[4]": {"settings": "septic dogs, septic shock (before treatment)"}, "[5]": {"settings": "septic dogs, septic shock condition (before treatment)"}, "[6]": {"settings": "septic dogs, listed as gentisic, sodium salt"}}, "note": "Entries after “also recorded” stand apart in the source; their conditions may differ. Like-named read-outs stand apart in the source and are kept apart here. Marks after values point to notes of the source that are not given here."}
{"smiles": "O=C(O)c1cc(O)c(O)c(O)c1", "note": "[gallic acid, 3,4,5 trihydroxybenzoic acid]", "values": [{"measurement": "Systemic vascular resistance", "setting": "septic dogs, 3 hrs post treatment", "value": 1673, "unit": "dynes S/cm^5"}, {"measurement": "ALT (alanine transaminase)", "setting": "[1]", "value": "187 ± 68*^+! IU"}, {"measurement": "AST (aspartate transaminase)", "setting": "[1]", "value": "324 ± 104*^+$ IU"}, {"measurement": "Arterial pH", "setting": "[1]", "value": "7.17 ± .10*^+@$"}, {"measurement": "CK (creatine kinase)", "setting": "[1]", "value": "3832 ± 3896*^+ IU"}, {"measurement": "Cardiac output", "setting": "[1]", "value": "120 ± 400", "unit": "mL/min/kg"}, {"measurement": "LD (lactate dehydrogenase)", "setting": "[1]", "value": "415 ± 192*^+#@$^ IU"}, {"measurement": "Lactate", "setting": "[1]", "value": ".8 ± .4^#! nunol/L"}, {"measurement": "Mean arterial pressure", "setting": "[1]", "value": "71 ± 10^*%@!$ mmHg"}, {"measurement": "Oxygen delivery", "setting": "[1]", "value": "26 ± 7", "unit": "mL/min/kg"}, {"measurement": "Pulmonary wedge pressure", "setting": "[1]", "value": "11.6 ± 2.6^+ mmHg"}, {"measurement": "Stroke work index", "setting": "[1]", "value": "62 ± 28*^+ ml mmHg/Kg"}, {"measurement": "Troponin", "setting": "[1]", "value": "41 ± 92", "unit": "ng/L"}, {"measurement": "Systemic vascular resistance", "setting": "septic dogs, 5 hrs post treatment", "value": 1478, "unit": "dynes S/cm^5"}, {"measurement": "ALT (alanine transaminase)", "setting": "[2]", "value": "189 ± 66*^+#! IU"}, {"measurement": "AST (aspartate transaminase)", "setting": "[2]", "value": "363 ± 89*^+$ IU"}, {"measurement": "Arterial pH", "setting": "[2]", "value": 7.12}, {"measurement": "CK (creatine kinase)", "setting": "[2]", "value": 5065, "unit": "IU"}, {"measurement": "Cardiac output", "setting": "[2]", "value": "130 ± 40", "unit": "mL/min/kg"}, {"measurement": "LD (lactate dehydrogenase)", "setting": "[2]", "value": 513, "unit": "IU"}, {"measurement": "Lactate", "setting": "[2]", "value": ".75 ± .35^#! nunol/L"}, {"measurement": "Mean arterial pressure", "setting": "[2]", "value": "60 ± 5*^%@!$ mmHg"}, {"measurement": "Oxygen delivery", "setting": "[2]", "value": "22 ± 3", "unit": "mL/min/kg"}, {"measurement": "Pulmonary wedge pressure", "setting": "[2]", "value": "11.3 ± 2.1^+ mmHg"}, {"measurement": "Stroke work index", "setting": "[2]", "value": "49 ± 20*^+ ml mmHg/Kg"}, {"measurement": "Troponin", "setting": "[2]", "value": "69 ± 157* ng/L"}, {"measurement": "Systemic vascular resistance", "setting": "[3]", "value": 3566, "unit": "dynes S/cm^5"}, {"measurement": "ALT (alanine transaminase)", "setting": "[3]", "value": "33 ± 16", "unit": "IU"}, {"measurement": "AST (aspartate transaminase)", "setting": "[3]", "value": "19 ± 3", "unit": "IU"}, {"measurement": "Arterial pH", "setting": "[3]", "value": "7.40 ± .05"}, {"measurement": "CK (creatine kinase)", "setting": "[3]", "value": "104 ± 35", "unit": "IU"}, {"measurement": "Cardiac output", "setting": "[3]", "value": "113 ± 20", "unit": "mL/min/kg"}, {"measurement": "Heart Rates", "setting": "[3]", "value": "49 ± 3"}, {"measurement": "LD (lactate dehydrogenase)", "setting": "[3]", "value": "36 ± 10", "unit": "IU"}, {"measurement": "Mean arterial pressure", "setting": "[3]", "value": "105 ± 14", "unit": "mmHg"}, {"measurement": "Oxygen delivery", "setting": "[3]", "value": "21 ± 6", "unit": "mL/min/kg"}, {"measurement": "Pulmonary wedge pressure", "setting": "[3]", "value": "11.3 ± 2.3", "unit": "mmHg"}, {"measurement": "Stroke work index", "setting": "[3]", "value": "212 ± 43", "unit": "ml mmHg/Kg"}, {"measurement": "Troponin", "setting": "septic dogs, baseline (before bacteria/treatment), index of myocardial injury", "value": "0 ± 3", "unit": "ng/L"}, {"measurement": "effect of treatment on mean arterial pressure (MAP)", "setting": "septic dogs", "value": "did not produce an increase in MAP"}, {"measurement": "effect of treatment on blood lactate concentration", "setting": "septic dogs", "value": "reduction in lactate at 3 hrs and 5 hrs posttreatment"}, {"measurement": "ALT (alanine transaminase)", "setting": "[4]", "value": "157 ± 61", "unit": "IU"}, {"measurement": "AST (aspartate transaminase)", "setting": "[4]", "value": "241 ± 104*^+$ IU"}, {"measurement": "Arterial pH", "setting": "[4]", "value": "7.25 ± .10*^+$"}, {"measurement": "CK (creatine kinase)", "setting": "[4]", "value": "2650 ± 3339", "unit": "IU"}, {"measurement": "LD (lactate dehydrogenase)", "setting": "[4]", "value": "200 ± 98*^+$ IU"}, {"measurement": "Systemic vascular resistance", "setting": "[5]", "value": 1257, "unit": "dynes S/cm^5"}, {"measurement": "Cardiac output", "setting": "[5]", "value": "150 ± 40", "unit": "mL/min/kg"}, {"measurement": "Heart Rates", "setting": "[5]", "value": "125 ± 28*^+"}, {"measurement": "Mean arterial pressure", "setting": "[5]", "value": "64 ± 12*^+ mmHg"}, {"measurement": "Oxygen delivery", "setting": "[5]", "value": "25 ± 6", "unit": "mL/min/kg"}, {"measurement": "Pulmonary wedge pressure", "setting": "[5]", "value": "10.4 ± 2.7^+ mmHg"}, {"measurement": "Stroke work index", "setting": "[5]", "value": "72 ± 32*^+ ml mmHg/Kg"}, {"measurement": "Troponin", "setting": "[5]", "value": "14 ± 15", "unit": "ng/L"}]}
{"smiles": "O=C([O-])c1cc(O)ccc1O.[Na+]", "note": "[GSS, 2,5-dihydroxybenzoic acid sodium salt]", "values": [{"measurement": "time of infusion until systemic blood pressure reached the baseline value", "setting": "one dog of the gentisic septic group (FIG. 4)", "value": "approximately 20 minutes"}, {"measurement": "arterial pH at the end of the study, compared among groups", "setting": "septic dogs", "value": "higher"}, {"measurement": "effect of treatment on stroke work index", "setting": "septic dogs, 3 hr and 5 hr vs septic control group, did not reach statistical significance", "value": "an increase in stroke work index"}, {"measurement": "effect of treatment on heart rate (HR)", "setting": "[6]", "value": "significant decrease in HR"}, {"measurement": "effect of treatment on heart rate (HR)", "setting": "septic dogs, sodium salt", "value": "heart rates were lower"}, {"measurement": "effect of treatment on systemic vascular resistance (SVR)", "setting": "septic dogs, 3 hrs and 5 hrs posttreatment vs septic shock condition, sodium salt", "value": "increased SVR back to the baseline value; also recorded: an increase in SVR"}, {"measurement": "ALT (alanine transaminase)", "setting": "[1]", "value": "209 ± 158*^+! IU"}, {"measurement": "AST (aspartate transaminase)", "setting": "[1]", "value": "235 ± 167*^+$ IU"}, {"measurement": "Arterial pH", "setting": "[1]", "value": "7.24 ± .08*^+$^"}, {"measurement": "CK (creatine kinase)", "setting": "[1]", "value": "1847 ± 1763^! IU"}, {"measurement": "Oxygen delivery", "setting": "[1]", "value": "20 ± 7", "unit": "mL/min/kg"}, {"measurement": "ALT (alanine transaminase)", "setting": "[2]", "value": "225 ± 171*^+ IU"}, {"measurement": "AST (aspartate transaminase)", "setting": "[2]", "value": "279 ± 208*^+!$ IU"}, {"measurement": "Arterial pH", "setting": "[2]", "value": "7.20 ± 0.06*^+#$^"}, {"measurement": "CK (creatine kinase)", "setting": "[2]", "value": "2857 ± 2527*^!^ IU"}, {"measurement": "Oxygen delivery", "setting": "[2]", "value": "20 ± 19", "unit": "mL/min/kg"}, {"measurement": "ALT (alanine transaminase)", "setting": "[3]", "value": "51 ± 29", "unit": "IU"}, {"measurement": "AST (aspartate transaminase)", "setting": "[3]", "value": "29 ± 31", "unit": "IU"}, {"measurement": "Arterial pH", "setting": "[3]", "value": "7.38 ± .03"}, {"measurement": "CK (creatine kinase)", "setting": "[3]", "value": "117 ± 106", "unit": "IU"}, {"measurement": "Oxygen delivery", "setting": "[3]", "value": "18 ± 3", "unit": "mL/min/kg"}, {"measurement": "effect of treatment on mean arterial pressure (MAP)", "setting": "septic dogs, sodium salt", "value": "increased MAP back to the baseline value; also recorded: return in MAP to baseline"}, {"measurement": "effect of treatment on blood lactate concentration", "setting": "[6]", "value": "did not increase and even tended to decrease slightly"}, {"measurement": "effect of treatment on blood lactate concentration", "setting": "septic dogs, sodium salt", "value": "did not change"}, {"measurement": "ALT (alanine transaminase)", "setting": "[4]", "value": "161 ± 132", "unit": "IU"}, {"measurement": "AST (aspartate transaminase)", "setting": "[4]", "value": "143 ± 113", "unit": "IU"}, {"measurement": "Arterial pH", "setting": "[4]", "value": 7.26}, {"measurement": "CK (creatine kinase)", "setting": "[4]", "value": "521 ± 750", "unit": "IU"}, {"measurement": "Oxygen delivery", "setting": "[5]", "value": "26 ± 6", "unit": "mL/min/kg"}]}
